In general, IC50 refers to the concentration that inhibits the measured activity by half.

Values after ≈ are worked out from the molar mass of the structure shown.

One test has as its system AGS. In words: Cytotoxicity against human AGS cells after 48 hrs by MTT assay. It counts as functional, cell-based.
Settings: not given
The compound `Cc1cc(Nc2cccc3ccccc23)c2ccc3ccccc3c2n1` showed a concentration for half-maximal inhibition (IC50) of 4.01 µM.

In turn, `Cc1nc2c3ccccc3ccc2c2nc3c(ccc4ccccc43)c(C)c12` gave an IC50 of over 80 µM.

Compound `Cc1nc2c3ccccc3ccc2c2nc3c(ccc4ccccc43)c(-c3ccccc3)c12` came in with a 50% inhibitory concentration (IC50) of over 80 µM.

`Cc1ccc(-c2c3ccc4ccccc4c3nc3c2c(C)nc2c4ccccc4ccc32)cc1` displayed an IC50 of over 80 µM.

With `Cc1nc2c3ccccc3ccc2c2nc3c(ccc4ccccc43)c(-c3ccccc3Cl)c12`, inhibition was half-maximal at 52.5 µM (IC50).

For the compound `COc1ccc(-c2c3ccc4ccccc4c3nc3c2c(C)nc2c4ccccc4ccc32)cc1`, the IC50 amounted to 66.4 µM.

`Cc1nc2c3ccccc3ccc2c2nc3c(ccc4ccccc43)c(-c3cccc([N+](=O)[O-])c3)c12` gave an IC50 of 25.5 µM.

`Cc1nc2c3ccccc3ccc2c2nc3c(ccc4ccccc43)c(-c3ccc(O)cc3)c12` showed an IC50 of 14.2 µM.

The next test deals with HCT-116. In words: Cytotoxicity against human HCT116 cells after 48 hrs by MTT assay. It counts as functional, cell-based. Conditions: HCT-116, 48 h. A general note: Formazan colour is commonly taken as a measure of viable cells.
Turning to `Cc1cc(Nc2cccc3ccccc23)c2ccc3ccccc3c2n1`, it took 5.61 µM to reach half-maximal inhibition (IC50).

As to `Cc1nc2c3ccccc3ccc2c2nc3c(ccc4ccccc43)c(C)c12`, the half-maximal inhibitory concentration (IC50) is over 80 µM.

Take `Cc1nc2c3ccccc3ccc2c2nc3c(ccc4ccccc43)c(-c3ccccc3)c12`: the IC50 is over 80 µM.

For the compound `Cc1ccc(-c2c3ccc4ccccc4c3nc3c2c(C)nc2c4ccccc4ccc32)cc1`, it took 67 µM to reach half-maximal inhibition (IC50).

`Cc1nc2c3ccccc3ccc2c2nc3c(ccc4ccccc43)c(-c3ccccc3Cl)c12`: the IC50 worked out at 48.2 µM.

Regarding `COc1ccc(-c2c3ccc4ccccc4c3nc3c2c(C)nc2c4ccccc4ccc32)cc1`, the IC50 is over 80 µM.

`Cc1nc2c3ccccc3ccc2c2nc3c(ccc4ccccc43)c(-c3cccc([N+](=O)[O-])c3)c12` displayed a 50% inhibitory concentration (IC50) of 13.2 µM.

`Cc1nc2c3ccccc3ccc2c2nc3c(ccc4ccccc43)c(-c3ccc(O)cc3)c12` returned an IC50 of 3.19 µM.

A further test concerns HeLa. In words: Cytotoxicity against human HeLa cells after 48 hrs by MTT assay. It counts as functional, cell-based.
Settings: not given
As for `Cc1cc(Nc2cccc3ccccc23)c2ccc3ccccc3c2n1`, 3.45 µM corresponded to half-maximal inhibition (IC50).

`Cc1nc2c3ccccc3ccc2c2nc3c(ccc4ccccc43)c(C)c12` gave an IC50 of over 80 µM.

For the compound `Cc1nc2c3ccccc3ccc2c2nc3c(ccc4ccccc43)c(-c3ccccc3)c12`, the IC50 was over 80 µM.

`Cc1ccc(-c2c3ccc4ccccc4c3nc3c2c(C)nc2c4ccccc4ccc32)cc1` displayed an IC50 of 72.2 µM.

The compound `Cc1nc2c3ccccc3ccc2c2nc3c(ccc4ccccc43)c(-c3ccccc3Cl)c12` showed an IC50 of over 80 µM.

Consider `COc1ccc(-c2c3ccc4ccccc4c3nc3c2c(C)nc2c4ccccc4ccc32)cc1`, for which 45.9 µM corresponded to half-maximal inhibition (IC50).

`Cc1nc2c3ccccc3ccc2c2nc3c(ccc4ccccc43)c(-c3cccc([N+](=O)[O-])c3)c12` came in with an IC50 of 50.7 µM.

Compound `Cc1nc2c3ccccc3ccc2c2nc3c(ccc4ccccc43)c(-c3ccc(O)cc3)c12` returned an IC50 of 4.63 µM.

Tested on in the next test: not listed separately
In words: Antioxidant activity assessed as ABTS radical scavenging activity after 30 mins by spectrophotometry. It counts as functional.
Settings: not given
Take `Cc1cc(Nc2cccc3ccccc23)c2ccc3ccccc3c2n1`: the IC50 turned out to be 115.2 µg/mL (≈ 344 µM).

With `Cc1nc2c3ccccc3ccc2c2nc3c(ccc4ccccc43)c(C)c12`, the IC50 came out at 128.5 µg/mL (≈ 358 µM).

For `Cc1nc2c3ccccc3ccc2c2nc3c(ccc4ccccc43)c(-c3ccccc3)c12`, the IC50 came out at 164.3 µg/mL (≈ 391 µM).

Turning to `Cc1ccc(-c2c3ccc4ccccc4c3nc3c2c(C)nc2c4ccccc4ccc32)cc1`, the IC50 turned out to be 123.3 µg/mL (≈ 284 µM).

Consider `Cc1nc2c3ccccc3ccc2c2nc3c(ccc4ccccc43)c(-c3ccccc3Cl)c12`, for which the concentration for half-maximal inhibition (IC50) was 118.1 µg/mL (≈ 260 µM).

With `COc1ccc(-c2c3ccc4ccccc4c3nc3c2c(C)nc2c4ccccc4ccc32)cc1`, the IC50 stood at 132.5 µg/mL (≈ 294 µM).

With `Cc1nc2c3ccccc3ccc2c2nc3c(ccc4ccccc43)c(-c3cccc([N+](=O)[O-])c3)c12`, the IC50 turned out to be 116.8 µg/mL (≈ 251 µM).

For `Cc1nc2c3ccccc3ccc2c2nc3c(ccc4ccccc43)c(-c3ccc(O)cc3)c12`, the IC50 turned out to be 86.4 µg/mL (≈ 198 µM).

Tested on in another test: not listed separately
The test can be described thus: Antioxidant activity assessed as hydroxyl radical scavenging activity after 15 mins by spectrophotometry. It counts as functional.
Settings: not given
`Cc1cc(Nc2cccc3ccccc23)c2ccc3ccccc3c2n1`: the IC50 was determined as 62.3 µg/mL (≈ 186 µM).

Take `Cc1nc2c3ccccc3ccc2c2nc3c(ccc4ccccc43)c(C)c12`: the IC50 came out at 89.6 µg/mL (≈ 250 µM).

For `Cc1nc2c3ccccc3ccc2c2nc3c(ccc4ccccc43)c(-c3ccccc3)c12`, the IC50 was 84.6 µg/mL (≈ 201 µM).

As to `Cc1ccc(-c2c3ccc4ccccc4c3nc3c2c(C)nc2c4ccccc4ccc32)cc1`, the IC50 was 68.7 µg/mL (≈ 158 µM).

In the case of `Cc1nc2c3ccccc3ccc2c2nc3c(ccc4ccccc43)c(-c3ccccc3Cl)c12`, the concentration for half-maximal inhibition (IC50) was determined as 74.6 µg/mL (≈ 164 µM).

In the case of `COc1ccc(-c2c3ccc4ccccc4c3nc3c2c(C)nc2c4ccccc4ccc32)cc1`, the IC50 came out at 82.3 µg/mL (≈ 183 µM).

With `Cc1nc2c3ccccc3ccc2c2nc3c(ccc4ccccc43)c(-c3cccc([N+](=O)[O-])c3)c12`, the IC50 is 54.2 µg/mL (≈ 116 µM).

Consider `Cc1nc2c3ccccc3ccc2c2nc3c(ccc4ccccc43)c(-c3ccc(O)cc3)c12`, for which the 50% inhibitory concentration (IC50) turned out to be 44.1 µg/mL (≈ 101 µM).

Tested on in a further test: not listed separately
The test can be described thus: Antioxidant activity assessed as superoxide anion radical scavenging activity after 90 seconds by formazan method. It counts as functional.
Settings: not given
Take `Cc1cc(Nc2cccc3ccccc23)c2ccc3ccccc3c2n1`: the IC50 turned out to be 186.2 µg/mL (≈ 557 µM).

Consider `Cc1nc2c3ccccc3ccc2c2nc3c(ccc4ccccc43)c(C)c12`, for which the IC50 is 194.5 µg/mL (≈ 543 µM).

`Cc1nc2c3ccccc3ccc2c2nc3c(ccc4ccccc43)c(-c3ccccc3)c12`: the IC50 was 188.1 µg/mL (≈ 447 µM).

As for `Cc1ccc(-c2c3ccc4ccccc4c3nc3c2c(C)nc2c4ccccc4ccc32)cc1`, the IC50 was determined as 191.5 µg/mL (≈ 441 µM).

Regarding `Cc1nc2c3ccccc3ccc2c2nc3c(ccc4ccccc43)c(-c3ccccc3Cl)c12`, the IC50 is 170 µg/mL (≈ 374 µM).

Take `COc1ccc(-c2c3ccc4ccccc4c3nc3c2c(C)nc2c4ccccc4ccc32)cc1`: the IC50 was found to be 176.4 µg/mL (≈ 392 µM).

Consider `Cc1nc2c3ccccc3ccc2c2nc3c(ccc4ccccc43)c(-c3cccc([N+](=O)[O-])c3)c12`, for which the IC50 is 157.3 µg/mL (≈ 338 µM).

Consider `Cc1nc2c3ccccc3ccc2c2nc3c(ccc4ccccc43)c(-c3ccc(O)cc3)c12`, for which the IC50 was determined as 99 µg/mL (≈ 227 µM).

The next test concerns Radical scavenging activity. In words: Antioxidant activity assessed as DPPH radical scavenging activity. It counts as functional.
Settings: not given
On the technique in general: Loss of DPPH colour is used to gauge radical scavenging.
`Cc1cc(Nc2cccc3ccccc23)c2ccc3ccccc3c2n1`: the IC50 was 18.2 µg/mL (≈ 54.4 µM).

As to `Cc1nc2c3ccccc3ccc2c2nc3c(ccc4ccccc43)c(C)c12`, the IC50 was found to be 46.6 µg/mL (≈ 130 µM).

In the case of `Cc1nc2c3ccccc3ccc2c2nc3c(ccc4ccccc43)c(-c3ccccc3)c12`, the IC50 was 31.3 µg/mL (≈ 74.4 µM).

As for `Cc1ccc(-c2c3ccc4ccccc4c3nc3c2c(C)nc2c4ccccc4ccc32)cc1`, the half-maximal inhibitory concentration (IC50) is 24.5 µg/mL (≈ 56.4 µM).

With `Cc1nc2c3ccccc3ccc2c2nc3c(ccc4ccccc43)c(-c3ccccc3Cl)c12`, the 50% inhibitory concentration (IC50) worked out at 43 µg/mL (≈ 94.5 µM).

As for `COc1ccc(-c2c3ccc4ccccc4c3nc3c2c(C)nc2c4ccccc4ccc32)cc1`, the IC50 was 27.5 µg/mL (≈ 61 µM).

For `Cc1nc2c3ccccc3ccc2c2nc3c(ccc4ccccc43)c(-c3cccc([N+](=O)[O-])c3)c12`, the IC50 was 33.3 µg/mL (≈ 71.5 µM).

For the compound `Cc1nc2c3ccccc3ccc2c2nc3c(ccc4ccccc43)c(-c3ccc(O)cc3)c12`, the IC50 worked out at 10.4 µg/mL (≈ 23.8 µM).

The record behind these values is ChEMBL document CHEMBL3132820, “Dinaphthonaphthyridines a class of novel molecules with potent antioxidant and anticancer activity” (Medchemcomm, 2013).
